This is an account of results in patent US7625926B2, “P-glycoprotein inhibitor, method for preparing the same and pharmaceutical composition comprising the same” (Hanmi Pharm. Co., Ltd, priority 2003, dated 2009).

The experiment has as its system MCF-7/Dox cell, which is MCF-7 expressing p-glycoprotein. Particulars: enhancement of anticancer activity of paclitaxel against MCF7/Dox; ED50 of paclitaxel alone / ED50 with 50 nM test compound.
Experimental: The cells were subcultured in 5% FBS (fetal bovine serum)/RPMI1640 medium supplemented with glutamine 2 mmol, sodium bicarbonate 3.7 g/L and gentamicin 10 mg/L at 37° C. in 5% CO2 incubator under 100% humidity, and collected using a 0.25% trypsin solution containing 3 mM 1,2-cyclohenxandiamine tetraacetic acid.
The collected cells were plated on a 96 well flat-bottomed plate at a density of 2×10^3 cells/well, and incubated in the same medium for 24 hours. Paclitaxel, an anticancer agent, was diluted with the same medium to obtain 10^−11˜10^−6 M test solutions. […] After incubating for 72 hours, the culture medium was removed, each well was treated with 10% trichloroacetic acid for 1 hour to fix the cells, washed with water, and dried at room temperature. After adding a dyeing solution containing 1% acetic acid with 0.4% SRB (sulforhodamine B) thereto, the wells were kept at room temperature for 30 min, and washed with 1% acetic acid to remove remaining SRB. […] Also, the enhancement of the anticancer activity of paclitaxel against MCF7/Dox (resistant cancer cells) was measured by determining ED^PAC50/ED50, wherein ED^PAC50 is the value determined for the case of paclitaxel alone.
Consider `COc1cc2c(cc1OC)CN(CCc1ccc(-n3nnc(-c4cc(OC)c(OC)cc4NC(=O)c4ccc(F)cc4)n3)cc1)CC2` [Example 17, N-[2-(2-{4-[2-(6,7-dimethoxy-3,4-dihydro-1H-isoquinolin-2-yl)-ethyl]-phenyl}-2H-tetrazol-5-yl)-4,5-dimethoxy-phenyl]-4-fluoro-benzamide], for which the “ED50^PAC/ED50” value is recorded as 4.0. Then `COc1cc2c(cc1OC)CN(CCc1ccc(-n3nnc(-c4cc(OC)c(OC)cc4NC(=O)c4cnnc5ccccc45)n3)cc1)CC2` [Example 26, cinoline-4-carboxylic acid [2-(2-{4-[2-(6,7-dimethoxy-3,4-dihydro-1H-isoquinolin-2-yl)-ethyl]-phenyl}-2H-tetrazol-5-yl)-4,5-dimethoxy-phenyl]-amide], with 24.0; and `COc1cc2c(cc1OC)CN(CCc1ccc(-n3nnc(-c4cc(OC)c(OC)cc4NC(=O)c4cccc5cccnc45)n3)cc1)CC2` [Example 4, quinoline-8-carboxylic acid [2-(2-{4-[2-(6,7-dimethoxy-3,4-dihydro-1H-isoquinolin-2-yl)-ethyl]-phenyl}-2H-tetrazol-5-yl)-4,5-dimethoxy-phenyl]-amide], with 4.3; and `COc1cc2c(cc1OC)CN(CCc1ccc(-n3nnc(-c4cc(OC)c(OC)cc4NC(=O)c4ccc(F)c(F)c4)n3)cc1)CC2` [Example 18, N-[2-(2-{4-[2-(6,7-dimethoxy-3,4-dihydro-1H-isoquinolin-2-yl)-ethyl]-phenyl}-2H-tetrazol-5-yl)-4,5-dimethoxy-phenyl]-3,4-difluoro-benzamide], with 3.7. Regarding `COc1cc2c(cc1OC)CN(CCc1ccc(-n3nnc(-c4cc(OC)c(OC)cc4NC(=O)c4cc(OC)c5ccccc5n4)n3)cc1)CC2` [Example 7, 4-methoxy-quinoline-2-carboxylic acid [2-(2-{4-[2-(6,7-dimethoxy-3,4-dihydro-1H-isoquinolin-2-yl)-ethyl]-phenyl}-2H-tetrazol-5-yl)-4,5-methoxy-phenyl]-amide], the “ED50^PAC/ED50” value was determined as 3.3. With `COc1cc2c(cc1OC)CN(CCc1ccc(-n3nnc(-c4cc(OC)c(OC)cc4NC(=O)C=Cc4cnc5ccccc5c4)n3)cc1)CC2` [Example 32, N-[2-(2-{4-[2-(6,7-dimethoxy-3,4-dihydro-1H-isoquinolin-2-yl)-ethyl]-phenyl}-2H-tetrazol-5-yl)-4,5-dimethoxy-phenyl]-3-quinolin-3-yl-acrylamide] the figure was 19.2; with `COc1cc2c(cc1OC)CN(CCc1ccc(-n3nnc(-c4cc(OC)c(OC)cc4NC(=O)c4cnc5ccccc5n4)n3)cc1)CC2` [Example 8, quinoxaline-2-carboxylic acid [2-(2-{4-[2-(6,7-dimethoxy-3,4-dihydro-1H-isoquinolin-2-yl)-ethyl]-phenyl}-2H-tetrazol-5-yl)-4,5-dimethoxy-phenyl]-amide], 22.0; with `COc1cc2c(cc1OC)CN(CCc1ccc(-n3nnc(-c4cc(OC)c(OC)cc4NC(=O)C=Cc4ccccc4)n3)cc1)CC2` [Example 31, N-[2-(2-{4-[2-(6,7-dimethoxy-3,4-dihydro-1H-isoquinolin-2-yl)-ethyl]-phenyl}-2H-tetrazol-5-yl)-4,5-dimethoxy-phenyl]-3-phenyl-acrylamide], 2.7. Then `COc1cc2c(cc1OC)CN(CCc1ccc(-n3nnc(-c4cc(OC)c(OC)cc4NC(=O)c4cnccn4)n3)cc1)CC2` [Example 12, pyrazine-2-carboxylic acid [2-(2-{4-[2-(6,7-dimethoxy-3,4-dihydro-1H-isoquinolin-2-yl)-ethyl]-phenyl}-2H-tetrazol-5-yl)-4,5-dimethoxy-phenyl]-amide], with 3.0. With `COc1cc2c(cc1OC)CN(CCSc1ccc(-n3nnc(-c4cc(OC)c(OC)cc4NC(=O)c4cnc5ccccc5c4)n3)cc1)CC2` [Example 29, quinoline-3-carboxylic acid [2-(2-{4-[2-(6,7-dimethoxy-3,4-dihydro-1H-isoquinolin-2-yl)-ethylsulfanyl]-phenyl}-2H-tetrazol-5-yl)-4,5-dimethoxy-phenyl]-amide] the figure was 21.3.
